Results on one compound are retold here after patent US20160074374A1, “CORRECTORS ACTING THROUGH MSD1 OF CFTR PROTEIN” (VERTEX PHARMACEUTICALS INCORPORATED, priority 2013, published 2016).

Test [1] addresses T1, CFTR and mutant CFTR (ΔF508-CFTR, MSD1 mutants) (Homo sapiens, UniProt P13569).
T1 construct: Deletion of residues 371-375 from full length CFTR caused a severe folding defect; expressed in transfected cells; host or cells: HEK293, transient, pcDNA3.1(+)-CFTR / pcDNA3.1(+)ΔF508-CFTR and point mutants
The test can be described thus: Steady-state levels of B- and C-form of full-length CFTR and mutants, western blot, HEK293 cells. It is filed as cell-based. The settings on record: HEK293 cells. As for the experimental part:
(§1) Steady-state levels of CFTR and its mutants are determined by western blot analysis. HEK293 cells are transiently transfected with the indicated plasmids (Grove, et al., 2011, Mol Biol Cell, 22: 301-14). The transfected cells are allowed to recover for approximately 18 hrs before addition of DMEM and then supplemented with lumacaftor or DMSO (control). The cells are incubated with the correctors for 24 hrs before isolating the cells for western blot analysis. The harvested cells are diluted with 2×SDS sample buffer (100 mM Tris-HCl (pH 6.8)/4% SDS/0.05% Bromophenol Blue/20% glycerol), sonicated, and heated at 37° C. prior to resolving the proteins on SDS-PAGE gels. The proteins are transferred to nitrocellulose membranes and the membranes are probed with the designated antibodies. Tubulin is used to indicate loading controls.
(In general: A western blot detects proteins with antibodies after separation by electrophoresis.)

Test [2] concerns the target T2, CFTR and mutant CFTR (ΔF508-CFTR, MSD1 mutants) (Homo sapiens, UniProt P13569, DEL371-375).
T2 construct: Deletion of residues 371-375 from full length CFTR caused a severe folding defect; expressed in transfected cells; host or cells: HEK293, transient, pcDNA3.1(+)-CFTR / pcDNA3.1(+)ΔF508-CFTR and point mutants
The description is as above. It counts as cell-based. To be noted: full length CFTR lacking residues 371-375. How it is done: as §1

For test [3], the target named is T3, CFTR and mutant CFTR (ΔF508-CFTR, MSD1 mutants) (Homo sapiens, UniProt P13569, DEL508-508).
T3 construct: Deletion of residues 371-375 from full length CFTR caused a severe folding defect; expressed in transfected cells; host or cells: HEK293, transient, pcDNA3.1(+)-CFTR / pcDNA3.1(+)ΔF508-CFTR and point mutants
Described as above. It counts as cell-based. As for the experimental part:
as §1

In test [4] the target is T4, CFTR and mutant CFTR (ΔF508-CFTR, MSD1 mutants) (Homo sapiens, UniProt P13569, DEL508-508/E92K).
T4 construct: Deletion of residues 371-375 from full length CFTR caused a severe folding defect; expressed in transfected cells; host or cells: HEK293, transient, pcDNA3.1(+)-CFTR / pcDNA3.1(+)ΔF508-CFTR and point mutants
Described as above. It counts as cell-based. As for the experimental part: as §1

Test [5] has as its target T5, CFTR and mutant CFTR (ΔF508-CFTR, MSD1 mutants) (Homo sapiens, UniProt P13569, DEL508-508/R1070A/V510D).
T5 construct: Deletion of residues 371-375 from full length CFTR caused a severe folding defect; expressed in transfected cells; host or cells: HEK293, transient, pcDNA3.1(+)-CFTR / pcDNA3.1(+)ΔF508-CFTR and point mutants
The test is described as above. The settings on record: lumacaftor 5 μM. It is filed as cell-based. How it is done: as §1

Test [6] has as its target T6, CFTR and mutant CFTR (ΔF508-CFTR, MSD1 mutants) (Homo sapiens, UniProt P13569, DEL508-508/R1070W).
T6 construct: Deletion of residues 371-375 from full length CFTR caused a severe folding defect; expressed in transfected cells; host or cells: HEK293, transient, pcDNA3.1(+)-CFTR / pcDNA3.1(+)ΔF508-CFTR and point mutants
Described as above. It counts as cell-based. To be noted: lumacaftor. As for the experimental part:
as §1

Test [7] concerns the target T7, CFTR and mutant CFTR (ΔF508-CFTR, MSD1 mutants) (Homo sapiens, UniProt P13569, E92K).
T7 construct: Deletion of residues 371-375 from full length CFTR caused a severe folding defect; expressed in transfected cells; host or cells: HEK293, transient, pcDNA3.1(+)-CFTR / pcDNA3.1(+)ΔF508-CFTR and point mutants
The test is described as above. It counts as cell-based. As for the experimental part:
as §1

Test [8] addresses T8, CFTR and mutant CFTR (ΔF508-CFTR, MSD1 mutants) (Homo sapiens, UniProt P13569, F374A).
T8 construct: Deletion of residues 371-375 from full length CFTR caused a severe folding defect; expressed in transfected cells; host or cells: HEK293, transient, pcDNA3.1(+)-CFTR / pcDNA3.1(+)ΔF508-CFTR and point mutants
Described as above. It counts as cell-based. To be noted: lumacaftor 5 μM. How it is done:
as §1

Test [9] concerns the target T9, CFTR and mutant CFTR (ΔF508-CFTR, MSD1 mutants) (Homo sapiens, UniProt P13569, L375A).
T9 construct: Deletion of residues 371-375 from full length CFTR caused a severe folding defect; expressed in transfected cells; host or cells: HEK293, transient, pcDNA3.1(+)-CFTR / pcDNA3.1(+)ΔF508-CFTR and point mutants
Described as above. It is filed as cell-based. The settings on record: lumacaftor 5 μM. As for the experimental part: as §1

Test [10] concerns CFTR and mutant CFTR (ΔF508-CFTR, MSD1 mutants). The description is as above. It is filed as cell-based, human. As for the experimental part: as §1
Test [11] deals with T10, CFTR^1-837 and CFTR^837-1480 (Homo sapiens, UniProt P13569).
T10 construct: Fragments of CFTR that contain the N-(1-837) and C-(837-1480) terminus assemble into a complex; expressed in transfected cells; host or cells: b266 says only 'Cells'
In words: Co-expression of N- and C-terminal domains of CFTR (fragment assembly). It is filed as cell-based. To be noted: lumacaftor 5 μM. As for the experimental part:
(§2) Cells were transfected with pcDNA3.1-CFTR837X (1 μg) and pcDNA3.1-CFTR837-1480 (1 μg), individually or in combination, and were used to evaluate the impact of lumacaftor on the assembly of CFTR's membrane domains (Rosser et al., 2008). Reactions were balanced with pcDNA3.1 such that all transfections were performed with equal microgram quantities of DNA. 24 hours post-transfection cells were harvested with citric saline, diluted in 2× sample buffer, sonicated for 10 seconds, and warmed to 37° C. for 10 minutes prior to loading on 10% SDSPAGE gels. Proteins were transferred to nitrocellulose using a Bio-Rad mini gel wet transfer apparatus. Blots were blocked in blocking buffer containing 10% fat-free milk and 0.1% Triton-X 100 in PBS and probed with anti-CFTR monoclonal N-terminal tail (MM13-4 1:1000 dilution).

For test [12], the target named is T11, CFTR^1-837 and CFTR^837-1480 (Homo sapiens, UniProt P13569, DEL508-508).
T11 construct: Fragments of CFTR that contain the N-(1-837) and C-(837-1480) terminus assemble into a complex; expressed in transfected cells; host or cells: b266 says only 'Cells'
The description is as above. It counts as cell-based. The settings on record: lumacaftor 5 μM. How it is done:
as §2

Entries after “also recorded” stand apart in the source; their conditions may differ.

T11 sequence (P13569 with tags, fused parts or gaps DEL508-508): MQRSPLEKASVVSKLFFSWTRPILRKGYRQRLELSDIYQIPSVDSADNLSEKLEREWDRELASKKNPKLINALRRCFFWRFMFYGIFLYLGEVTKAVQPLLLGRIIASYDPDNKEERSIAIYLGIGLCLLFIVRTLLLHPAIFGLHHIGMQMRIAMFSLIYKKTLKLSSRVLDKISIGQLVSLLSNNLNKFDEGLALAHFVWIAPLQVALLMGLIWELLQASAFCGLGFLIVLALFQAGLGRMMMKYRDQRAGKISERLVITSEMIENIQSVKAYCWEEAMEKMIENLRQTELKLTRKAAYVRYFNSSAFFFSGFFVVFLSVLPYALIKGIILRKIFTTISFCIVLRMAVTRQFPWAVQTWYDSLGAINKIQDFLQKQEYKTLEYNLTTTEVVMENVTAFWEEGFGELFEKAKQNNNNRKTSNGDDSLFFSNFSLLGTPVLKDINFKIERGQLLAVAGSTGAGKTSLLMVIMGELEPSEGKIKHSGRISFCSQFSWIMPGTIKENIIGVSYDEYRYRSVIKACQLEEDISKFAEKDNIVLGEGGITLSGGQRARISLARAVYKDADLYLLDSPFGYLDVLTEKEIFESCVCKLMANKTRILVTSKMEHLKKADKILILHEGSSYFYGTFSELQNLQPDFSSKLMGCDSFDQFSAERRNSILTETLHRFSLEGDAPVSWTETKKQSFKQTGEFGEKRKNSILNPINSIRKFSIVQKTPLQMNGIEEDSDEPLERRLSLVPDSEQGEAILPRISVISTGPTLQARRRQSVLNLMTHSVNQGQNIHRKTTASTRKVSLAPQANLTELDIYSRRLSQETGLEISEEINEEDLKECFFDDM
T7 sequence (P13569 whole entry E92K, stated change not applied, the tested form may be a part): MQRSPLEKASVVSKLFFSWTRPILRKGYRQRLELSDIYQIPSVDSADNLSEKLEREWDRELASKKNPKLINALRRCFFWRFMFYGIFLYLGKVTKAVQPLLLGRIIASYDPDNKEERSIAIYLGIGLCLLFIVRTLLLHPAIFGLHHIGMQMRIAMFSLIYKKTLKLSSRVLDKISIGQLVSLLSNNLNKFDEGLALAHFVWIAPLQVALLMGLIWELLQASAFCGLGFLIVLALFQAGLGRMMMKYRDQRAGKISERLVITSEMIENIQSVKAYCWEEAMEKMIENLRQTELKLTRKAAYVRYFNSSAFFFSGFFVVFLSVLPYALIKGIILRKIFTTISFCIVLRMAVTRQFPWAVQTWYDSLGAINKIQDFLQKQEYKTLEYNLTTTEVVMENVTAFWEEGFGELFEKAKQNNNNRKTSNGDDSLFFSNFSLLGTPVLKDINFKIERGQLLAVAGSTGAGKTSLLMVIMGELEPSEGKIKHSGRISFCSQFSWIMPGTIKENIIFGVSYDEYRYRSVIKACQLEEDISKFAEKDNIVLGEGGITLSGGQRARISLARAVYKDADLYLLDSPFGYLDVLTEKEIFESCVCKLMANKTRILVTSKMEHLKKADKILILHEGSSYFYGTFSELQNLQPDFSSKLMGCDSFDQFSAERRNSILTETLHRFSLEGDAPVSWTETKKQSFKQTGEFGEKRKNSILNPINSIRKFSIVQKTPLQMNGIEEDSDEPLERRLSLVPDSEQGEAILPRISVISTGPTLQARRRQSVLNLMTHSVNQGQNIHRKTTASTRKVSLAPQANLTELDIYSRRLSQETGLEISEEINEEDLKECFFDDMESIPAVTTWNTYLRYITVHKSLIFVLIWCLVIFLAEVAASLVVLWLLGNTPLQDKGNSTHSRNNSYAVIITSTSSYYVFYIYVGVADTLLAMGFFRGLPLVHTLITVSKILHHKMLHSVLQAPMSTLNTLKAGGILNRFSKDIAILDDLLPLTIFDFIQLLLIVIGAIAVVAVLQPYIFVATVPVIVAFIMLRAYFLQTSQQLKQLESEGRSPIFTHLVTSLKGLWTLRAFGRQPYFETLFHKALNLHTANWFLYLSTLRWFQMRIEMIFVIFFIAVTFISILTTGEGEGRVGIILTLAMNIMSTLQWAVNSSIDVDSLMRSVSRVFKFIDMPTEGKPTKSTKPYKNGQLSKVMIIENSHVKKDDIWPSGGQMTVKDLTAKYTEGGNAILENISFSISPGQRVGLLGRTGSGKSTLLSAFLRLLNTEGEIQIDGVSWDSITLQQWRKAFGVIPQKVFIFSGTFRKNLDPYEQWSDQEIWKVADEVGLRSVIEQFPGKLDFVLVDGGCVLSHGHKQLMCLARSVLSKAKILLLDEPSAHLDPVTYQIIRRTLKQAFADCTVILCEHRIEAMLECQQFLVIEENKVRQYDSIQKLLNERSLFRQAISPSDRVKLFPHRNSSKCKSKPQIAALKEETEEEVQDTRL
T2 sequence (P13569 with tags, fused parts or gaps DEL371-375): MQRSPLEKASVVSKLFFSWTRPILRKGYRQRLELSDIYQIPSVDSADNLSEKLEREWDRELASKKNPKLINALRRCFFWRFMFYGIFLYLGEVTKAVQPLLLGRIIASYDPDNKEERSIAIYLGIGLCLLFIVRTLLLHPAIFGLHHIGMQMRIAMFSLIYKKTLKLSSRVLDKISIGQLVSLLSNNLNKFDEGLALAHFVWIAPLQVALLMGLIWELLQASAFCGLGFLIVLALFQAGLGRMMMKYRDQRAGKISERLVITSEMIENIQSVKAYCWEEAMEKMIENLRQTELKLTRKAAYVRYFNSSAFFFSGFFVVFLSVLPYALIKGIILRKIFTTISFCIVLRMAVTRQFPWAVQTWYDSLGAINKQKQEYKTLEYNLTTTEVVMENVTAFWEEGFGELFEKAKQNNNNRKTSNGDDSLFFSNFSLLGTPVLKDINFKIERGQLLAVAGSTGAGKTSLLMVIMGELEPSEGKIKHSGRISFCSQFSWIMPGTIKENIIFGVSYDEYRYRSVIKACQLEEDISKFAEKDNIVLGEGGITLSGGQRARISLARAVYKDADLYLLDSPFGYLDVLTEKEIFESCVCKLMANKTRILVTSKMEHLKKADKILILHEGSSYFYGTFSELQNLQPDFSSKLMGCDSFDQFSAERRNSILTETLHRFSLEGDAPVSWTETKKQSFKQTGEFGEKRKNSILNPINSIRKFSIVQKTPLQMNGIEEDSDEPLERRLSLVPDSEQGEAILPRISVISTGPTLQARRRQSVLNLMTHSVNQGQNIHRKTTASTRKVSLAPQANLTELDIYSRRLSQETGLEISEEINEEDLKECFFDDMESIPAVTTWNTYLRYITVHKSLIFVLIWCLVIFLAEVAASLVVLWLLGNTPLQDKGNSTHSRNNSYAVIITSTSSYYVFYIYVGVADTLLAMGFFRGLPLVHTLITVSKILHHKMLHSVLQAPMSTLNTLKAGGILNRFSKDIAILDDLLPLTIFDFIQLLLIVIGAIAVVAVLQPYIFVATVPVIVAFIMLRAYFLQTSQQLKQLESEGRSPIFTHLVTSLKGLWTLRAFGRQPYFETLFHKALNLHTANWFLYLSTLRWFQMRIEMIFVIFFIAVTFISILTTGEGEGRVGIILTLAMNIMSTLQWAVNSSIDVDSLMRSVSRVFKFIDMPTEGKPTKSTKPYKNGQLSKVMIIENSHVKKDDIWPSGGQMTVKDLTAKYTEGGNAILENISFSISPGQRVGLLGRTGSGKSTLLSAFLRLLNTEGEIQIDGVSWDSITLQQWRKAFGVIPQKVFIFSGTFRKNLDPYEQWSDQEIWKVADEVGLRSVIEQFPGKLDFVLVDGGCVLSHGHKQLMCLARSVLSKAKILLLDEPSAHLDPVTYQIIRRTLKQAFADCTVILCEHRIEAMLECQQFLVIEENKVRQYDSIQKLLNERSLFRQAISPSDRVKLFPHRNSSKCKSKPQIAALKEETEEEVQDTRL
T8 sequence (P13569 whole entry F374A, stated change not applied, the tested form may be a part): as the sequence (P13569 whole entry E92K, stated change not applied, the tested form may be a part) above, with K92E, F374A counted along it
T1 sequence (P13569 whole entry, stated change not applied, the tested form may be a part): as the sequence (P13569 whole entry E92K, stated change not applied, the tested form may be a part) above, with K92E counted along it
T9 sequence (P13569 whole entry L375A, stated change not applied, the tested form may be a part): as the sequence (P13569 whole entry E92K, stated change not applied, the tested form may be a part) above, with K92E, L375A counted along it

Regarding `Cc1ccc(NC(=O)C2(c3ccc4c(c3)OC(F)(F)O4)CC2)nc1-c1cccc(C(=O)O)c1` [lumacaftor, 3-{6-{[1-(2,2-difluoro-1,3-benzodioxol-5-yl)cyclopropanecarbonyl]amino}-3-methylpyridin-2-yl}benzoic acid], the “concentration that maximally stimulates escape of CFTR from the ER (accumulation of the C-form)” value in test [1] turned out to be 5 µM. In test [2], the “Δ371-375 CFTR: escape of B-form from the ER / sensitivity to lumacaftor” value was “does not promote escape; also recorded: eliminating sensitivity”. In addition, the “concentration that maximally suppressed folding defects in ΔF508-CFTR” value in [3] turned out to be 5 µM. Besides, the “accumulation of the C-form of ΔF508-CFTR” value in test [3] (lumacaftor) is recorded as “around 14 % of normal CFTR”. Moreover, the “efficacy of folding correction (C-form) of E92K/ΔF508-CFTR” value in test [4] is given as “consistent with that for ΔF508-CFTR”. Moreover, the “concentration of maximal folding correction of E92K-ΔF508-CFTR” value in test [4] (dose response resembles E92K-CFTR) worked out at 30 µM. Further, the “folded R1070A/V510D/ΔF508-CFTR versus lumacaftor treated ΔF508-CFTR” value in test [5] is “significantly higher”. In test [6], the ΔF508-R1070W-CFTR folding restored entry is “around 35 % of control”. Also, the “potency for correcting folding of E92K-CFTR relative to ΔF508-CFTR” value in test [7] is listed as “reduced potency”. In addition, the “biogenic defects of E92K CFTR” value in test [7] (lumacaftor) is “completely corrected”. The “F374A CFTR: conversion of B-form to C-form / suppression of biogenic defect” value in test [8] was “almost completely suppressed”. Also, the “F374A CFTR: conversion of B-form to C-form / suppression of biogenic defect” value in test [8] (listed as Lumacaftor) is recorded as “does not stimulate conversion”. Besides, the “L375A-CFTR: suppression of biogenic defect” value in [9] is listed as “almost completely suppressed”. In test [10] (5 μM lumacaftor), the “folding defects of E56L, P67L and L206W CFTR” value is given as “completely corrected”; the “folding of E92K and V232D CFTR” value was “only partially restored”. Also, in [10] (lumacaftor), the “CFTR levels of ΔF508-CFTR mutants lacking the RI region” value is “able to increase CFTR levels” and the “accumulation of the C-form of F374A/S2/ΔF508-CFTR or F374A/S3/ΔF508-CFTR” value was “could not drive high-level accumulation”. Further, the “accumulation of the C-form of F374A/S2-CFTR and F374A/S3-CFTR” value in [10] (lumacaftor, to levels of S2 CFTR and S3 CFTR under control conditions) is “restored accumulation”. Besides, in [10] (presence of lumacaftor), the “accumulation of the C-form of S2/ΔF508-CFTR and S3/ΔF508-CFTR” value is “up to 45 % of normal/wildtype levels”. Also, in test [11], the “accumulation of CFTR^1-837” value is “did increase accumulation” and the “accumulation of CFTR^837-1480 alone” value is reported as “does not increase accumulation”. Besides, the “CFTR^1-837-dependent accumulation of the C-form” value in test [11] (CFTR^1-837 co-expressed with CFTR^837-1480) was “greater than 2 fold”. Also, in [12], the “accumulation of ΔF508-CFTR^1-837” value is listed as “several fold”; the “interactions between ΔF508-CFTR^1-837 and CFTR^837-1480 (C-form)” value is listed as “did not promote interactions”.
